Laboratory results as given in patent publication US20240101570A1 (AMGEN INC., priority 2020, published 2024).

Columns and labels:
HCT116 MTAP null cells = assay: HCT116 MTAP null cell proliferation / viability (CellTiter-Glo, 6 days); type: cell-based; settings: HCT116-MTAP null, 144 h, HCT116 MTAP null cells, 6 days, CellTiter-Glo; read-out: HCT-116 MTAP null IC50
Method in brief: (§1)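 IC50 values derive from sigmoidal dose-response fits, some with Hill slope fixed at −1 and top constrained to 100%, others from 4-parameter logistic models. They reflect CellTiter-Glo viability after 6 days of compound exposure at up to 10 or 50 μM.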

HCT116 WT cells = assay: HCT116 WT cell proliferation / viability (CellTiter-Glo, 6 days); type: cell-based; settings: Homo sapiens, HCT-116, 144 h, HCT116 WT cells, 6 days, CellTiter-Glo; read-out: HCT-116 WT IC50
Method in brief: as §1

`CN(Cc1ccc(C2CC2)nn1)C(=O)c1cc2c3c(c(N)nc2cc1Cl)COC3` [Example 519, 4-amino-7-chloro-N-((6-cyclopropyl-3-pyridazinyl)methyl)-N-methyl-1,3-dihydrofuro[3,4-c]quinoline-8-carboxamide] showed an IC50 (HCT116 MTAP null cells) of 0.187 µM and an IC50 (HCT116 WT cells) of 14 µM.

`Cc1cc2nc(N)c3c(cnn3C)c2cc1C(=O)N(C)Cc1ccc(C(F)(F)F)cn1` [Example 520, 4-amino-N,3,7-trimethyl-N-((5-(trifluoromethyl)-2-pyridinyl)methyl)-3H-pyrazolo[3,4-c]quinoline-8-carboxamide] showed an IC50 (HCT116 MTAP null cells) of 0.149 µM and an IC50 (HCT116 WT cells) of 9.06 µM.

In the case of `Cc1cc2nc(N)c3cnn(C)c3c2cc1C(=O)N(C)Cc1ccc(C(F)(F)F)cn1` [Example 521, 4-amino-N,1,7-trimethyl-N-((5-(trifluoromethyl)-2-pyridinyl)methyl)-1H-pyrazolo[4,3-c]quinoline-8-carboxamide], the IC50 (HCT116 MTAP null cells) is reported as 0.018 µM and the IC50 (HCT116 WT cells) is reported as 0.698 µM.

In the case of `CC(C)N(Cc1ccc(C2CC2)cn1)C(=O)c1cc2c(cc1F)nc(N)c1c2cnn1C` [Example 522, 4-amino-N-((5-cyclopropyl-2-pyridinyl)methyl)-7-fluoro-3-methyl-N-(2-propanyl)-3H-pyrazolo[3,4-c]quinoline-8-carboxamide], the IC50 (HCT116 MTAP null cells) is reported as 0.014 µM and the IC50 (HCT116 WT cells) is reported as 0.38 µM.

Work on `CN(Cc1ccc(Cl)cn1)C(=O)c1ccc2nc(N)c3cnn(C)c3c2c1` [Example 523, 4-amino-N-((5-chloro-2-pyridinyl)methyl)-N,1-dimethyl-1H-pyrazolo[4,3-c]quinoline-8-carboxamide] yielded an IC50 (HCT116 MTAP null cells) of 0.072 µM and an IC50 (HCT116 WT cells) of 6.79 µM.

`CN(Cc1ccc(C(F)F)cn1)C(=O)c1ccc2nc(N)c3cnn(C)c3c2c1` [Example 524, 4-amino-N-((5-(difluoromethyl)-2-pyridinyl)methyl)-N,1-dimethyl-1H-pyrazolo[4,3-c]quinoline-8-carboxamide] showed an IC50 (HCT116 MTAP null cells) of 0.183 µM and an IC50 (HCT116 WT cells) of 16.4 µM.

In the case of `CN(Cc1ccc(C(F)F)cn1)C(=O)c1cc2c(cc1F)nc(N)c1cnn(C)c12` [Example 525, 4-amino-N-((5-(difluoromethyl)-2-pyridinyl)methyl)-7-fluoro-N,1-dimethyl-1H-pyrazolo[4,3-c]quinoline-8-carboxamide], the IC50 (HCT116 MTAP null cells) is reported as 0.032 µM and the IC50 (HCT116 WT cells) is reported as 2.12 µM.

With `CN(Cc1ccc(C(F)(F)F)c(F)c1)C(=O)c1ccc2nc(N)c3cnn(C)c3c2c1` [Example 526, 4-amino-N-(3-fluoro-4-(trifluoromethyl)benzyl)-N,1-dimethyl-1H-pyrazolo[4,3-c]quinoline-8-carboxamide] the IC50 (HCT116 MTAP null cells) was 0.169 µM and the IC50 (HCT116 WT cells) was 6.95 µM.

`CN(Cc1ncc(C(F)(F)F)cc1F)C(=O)c1ccc2nc(N)c3cnn(C)c3c2c1` [Example 527, 4-amino-N-((3-fluoro-5-(trifluoromethyl)-2-pyridinyl)methyl)-N,1-dimethyl-1H-pyrazolo[4,3-c]quinoline-8-carboxamide] showed an IC50 (HCT116 MTAP null cells) of 0.183 µM and an IC50 (HCT116 WT cells) of 13.5 µM.

In the case of `CN(Cc1ncc(C(F)(F)F)cc1F)C(=O)c1cc2c3c(c(N)nc2cc1F)COC3` [Example 528, 4-amino-7-fluoro-N-((3-fluoro-5-(trifluoromethyl)-2-pyridinyl)methyl)-N-methyl-1,3-dihydrofuro[3,4-c]quinoline-8-carboxamide], the IC50 (HCT116 MTAP null cells) is reported as 0.111 µM and the IC50 (HCT116 WT cells) is reported as 5.42 µM.

For `CN(Cc1ccc(-c2cnn(C(F)(F)F)c2)nn1)C(=O)c1ccc2nc(N)c3cnn(C)c3c2c1` [Example 529, 4-amino-N,1-dimethyl-N-((6-(1-(trifluoromethyl)-1H-pyrazol-4-yl)-3-pyridazinyl)methyl)-1H-pyrazolo[4,3-c]quinoline-8-carboxamide], the IC50 (HCT116 MTAP null cells) was 0.887 µM and the IC50 (HCT116 WT cells) was 28.5 µM.

Molecule `CN(Cc1ccc(-c2ccc(C(F)(F)F)cc2)nn1)C(=O)c1ccc2nc(N)c3cnn(C)c3c2c1` [Example 530, 4-amino-N,1-dimethyl-N-((6-(4-(trifluoromethyl)phenyl)-3-pyridazinyl)methyl)-1H-pyrazolo[4,3-c]quinoline-8-carboxamide] has an IC50 (HCT116 MTAP null cells) of 0.165 µM and an IC50 (HCT116 WT cells) of 6.56 µM.

In the case of `C[C@H](c1ccc(-c2ccc(C(F)(F)F)cc2)cc1)N(C)C(=O)c1ccc2nc(N)c3cnn(C)c3c2c1` [Example 531, 4-amino-N,1-dimethyl-N-((1R)-1-(4′-(trifluoromethyl)[biphenyl]-4-yl)ethyl)-1H-pyrazolo[4,3-c]quinoline-8-carboxamide], the IC50 (HCT116 MTAP null cells) is reported as 0.188 µM and the IC50 (HCT116 WT cells) is reported as 2.34 µM.

Work on `C[C@H](c1ccc(-c2ccc(C(F)(F)F)cc2)nn1)N(C)C(=O)c1ccc2nc(N)c3cnn(C)c3c2c1` [Example 532, 4-amino-N,1-dimethyl-N-((1R)-1-(6-(4-(trifluoromethyl)phenyl)-3-pyridazinyl)ethyl)-1H-pyrazolo[4,3-c]quinoline-8-carboxamide] yielded an IC50 (HCT116 MTAP null cells) of 0.037 µM and an IC50 (HCT116 WT cells) of 2.03 µM.

In the case of `C[C@H](c1ccc(-c2ccc(S(F)(F)(F)(F)F)cc2)cc1)N(C)C(=O)c1ccc2nc(N)c3cnn(C)c3c2c1` [Example 533, 4-amino-N,1-dimethyl-N-((1R)-1-(4′-(pentafluoro-lambda~6~- sulfanyl)[biphenyl]-4-yl)ethyl)-1H-pyrazolo[4,3-c]quinoline-8-carboxamide], the IC50 (HCT116 MTAP null cells) is reported as 0.459 µM and the IC50 (HCT116 WT cells) is reported as 3.19 µM.

`CC(C)N(Cc1ccc(C(F)(F)F)cn1)C(=O)c1cc2c3c(c(N)nc2cn1)CCO3` [Example 534, 4-amino-N-(2-propanyl)-N-((5-(trifluoromethyl)-2-pyridinyl)methyl)-2,3-dihydrofuro[3,2-c][1,7]naphthyridine-8-carboxamide] gave an IC50 (HCT116 MTAP null cells) of 0.581 µM and an IC50 (HCT116 WT cells) of 5.58 µM.

For `CN(CC(F)(F)c1ccc(Cl)cn1)C(=O)c1ccc2nc(N)c3cnn(C)c3c2c1` [Example 535, 4-amino-N-(2-(5-chloro-2-pyridinyl)-2,2-difluoroethyl)-N,1-dimethyl-1H-pyrazolo[4,3-c]quinoline-8-carboxamide], the IC50 (HCT116 MTAP null cells) was 0.86 µM and the IC50 (HCT116 WT cells) was 6.99 µM.

`CC(C)N(Cc1ccc(C(F)(F)F)cn1)C(=O)c1cc2c3c(c(N)nc2cc1F)CCO3` [Example 536, 4-amino-7-fluoro-N-(2-propanyl)-N-((5-(trifluoromethyl)-2-pyridinyl)methyl)-2,3-dihydrofuro[3,2-c]quinoline-8-carboxamide] showed an IC50 (HCT116 MTAP null cells) of 0.05 µM and an IC50 (HCT116 WT cells) of 0.325 µM.

`CCN(Cc1ccc(C(F)(F)F)cn1)C(=O)c1cc2c3c(c(N)nc2nc1Cl)COC3` [Example 537, 4-amino-7-chloro-N-ethyl-N-((5-(trifluoromethyl)-2-pyridinyl)methyl)-1,3-dihydrofuro[3,4-c][1,8]naphthyridine-8-carboxamide] showed an IC50 (HCT116 MTAP null cells) of 0.222 µM and an IC50 (HCT116 WT cells) of 5.39 µM.

`Cc1nn(C)c2c1c(N)nc1cc(F)c(C(=O)N(Cc3ccc(C(F)(F)F)cn3)C(C)C)cc12` [Example 538, 4-amino-7-fluoro-1,3-dimethyl-N-(2-propanyl)-N-((5-(trifluoromethyl)-2-pyridinyl)methyl)-1H-pyrazolo[4,3-c]quinoline-8-carboxamide] showed an IC50 (HCT116 MTAP null cells) of 0.04 µM and an IC50 (HCT116 WT cells) of 0.735 µM.

Molecule `CCN(Cc1ccc(C2CC2)cn1)C(=O)c1ccc2nc(N)c3c(c2c1)COC3` [Example 539, 4-amino-N-((5-cyclopropyl-2-pyridinyl)methyl)-N-ethyl-1,3-dihydrofuro[3,4-c]quinoline-8-carboxamide] has an IC50 (HCT116 MTAP null cells) of 0.106 µM and an IC50 (HCT116 WT cells) of 2.1 µM.

In the case of `CCN(Cc1ccc(C2CC2)cn1)C(=O)c1ccc2nc(N)c3cnn(C)c3c2c1` [Example 540, 4-amino-N-((5-cyclopropyl-2-pyridinyl)methyl)-N-ethyl-1-methyl-1H-pyrazolo[4,3-c]quinoline-8-carboxamide], the IC50 (HCT116 MTAP null cells) is reported as 0.039 µM and the IC50 (HCT116 WT cells) is reported as 1.48 µM.

`CCN(Cc1ccc(C2CC2)cn1)C(=O)c1cc2c(cn1)nc(N)c1cnn(C)c12` [Example 541, 4-amino-N-((5-cyclopropyl-2-pyridinyl)methyl)-N-ethyl-1-methyl-1H-pyrazolo[4,3-c][1,7]naphthyridine-8-carboxamide] showed an IC50 (HCT116 MTAP null cells) of 0.037 µM and an IC50 (HCT116 WT cells) of 0.548 µM.

Molecule `CCN(Cc1ccc(C2CC2)cn1)C(=O)c1ccc2nc(N)c3c(c2c1)CO[C@@H]3C` [Example 542, (3R)-4-amino-N-((5-cyclopropyl-2-pyridinyl)methyl)-N-ethyl-3-methyl-1,3-dihydrofuro[3,4-c]quinoline-8-carboxamide] has an IC50 (HCT116 MTAP null cells) of 0.035 µM and an IC50 (HCT116 WT cells) of 1.54 µM.

`CN(Cc1ccc(C(F)(F)F)cc1)C(=O)c1ccc2nc(N)c3cnn(C)c3c2c1` [Example 543, 4-amino-N,1-dimethyl-N-(4-(trifluoromethyl)benzyl)-1H-pyrazolo[4,3-c]quinoline-8-carboxamide] gave an IC50 (HCT116 MTAP null cells) of 0.057 µM and an IC50 (HCT116 WT cells) of 2.01 µM.

`CN(Cc1ccc(C(F)(F)F)cc1)C(=O)c1cc2c(cn1)nc(N)c1cnn(C)c12` [Example 544, 4-amino-N,1-dimethyl-N-(4-(trifluoromethyl)benzyl)-1H-pyrazolo[4,3-c][1,7]naphthyridine-8-carboxamide] showed an IC50 (HCT116 MTAP null cells) of 0.056 µM and an IC50 (HCT116 WT cells) of 2.32 µM.

`CCN(Cc1ccc(C2CC2)cn1)C(=O)c1cc2c(cc1F)nc(N)c1cnn(C)c12` [Example 545, 4-amino-N-((5-cyclopropyl-2-pyridinyl)methyl)-N-ethyl-7-fluoro-1-methyl-1H-pyrazolo[4,3-c]quinoline-8-carboxamide] was tested, and the IC50 (HCT116 MTAP null cells) was 0.007 µM and the IC50 (HCT116 WT cells) was 0.14 µM.

Molecule `CCN(Cc1ccc(C(F)(F)F)cn1)C(=O)c1ccc2nc(N)c3cnn(C)c3c2c1` [Example 546, 4-amino-N-ethyl-1-methyl-N-((5-(trifluoromethyl)-2-pyridinyl)methyl)-1H-pyrazolo[4,3-c]quinoline-8-carboxamide] has an IC50 (HCT116 MTAP null cells) of 0.019 µM and an IC50 (HCT116 WT cells) of 0.976 µM.

`CCN(Cc1ccc(C(F)(F)F)cn1)C(=O)c1ccc2nc(N)c3c(C)noc3c2c1` [Example 547, 4-amino-N-ethyl-3-methyl-N-((5-(trifluoromethyl)-2-pyridinyl)methyl)[1,2]oxazolo[4,5-c]quinoline-8-carboxamide] gave an IC50 (HCT116 MTAP null cells) of 0.668 µM and an IC50 (HCT116 WT cells) of 24.5 µM.
